Several values for one entry are separate records, joined by “and”; a condition that tells them apart may be missing. Identical values can stand only once.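 48-hour exposure; five concentrations; linearly interpolated endpoints. Abbreviation: GI50, concentration required for 50% inhibition of growth. At the TGI there is no net growth.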
Columns and labels:
Test in all cases: DTP human tumour cell line panel, 48 h
[1] = test system: MDA-MB-435
[2] = test system: NCI-H226 lung
[3] = test system: HCT-116 colon
[4] = test system: K-562 leukemia
[5] = test system: NCI-H522 lung
[6] = test system: U251 CNS
[7] = test system: COLO 205 colon
[8] = test system: RPMI-8226 leukemia
[9] = test system: NCI/ADR-RES ovarian

SMILES	GI50 [1]	TGI [1]	GI50 [2]	TGI [2]	GI50 [3]	TGI [3]	GI50 [4]	TGI [4]	GI50 [5]	TGI [5]	GI50 [6]	TGI [6]	GI50 [7]	TGI [7]	GI50 [8]	TGI [8]	GI50 [9]	TGI [9]
Cn1cc(-c2ccc3c(Nc4cccc(NC(=O)Nc5cccc(F)c5)c4)ncnc3c2)cn1	1.49 µM	2.89 µM	12.1 µM	35.9 µM	2.04 µM	7.9 µM	2.14 µM	> 100 µM	1.22 µM	15.9 µM	1.79 µM	5.07 µM	0.0503 µM	13.4 µM	1.53 µM	4.65 µM	10.8 µM	> 100 µM
COc1cc(C2c3[nH]c4ccccc4c3C[C@H]3COC(=O)N23)cc(OC)c1OC (stereo not given in full)		0.0494 µM		0.902 µM			< 0.01 µM	1.13 µM	< 0.01 µM	0.04 µM and < 0.01 µM	< 0.01 µM	> 100 µM	< 0.01 µM	0.287 µM and 0.0434 µM	< 0.01 µM	< 0.01 µM	0.0586 µM and < 0.01 µM	0.265 µM and 0.0902 µM
COc1cc2c(cc1O)CC[C@@H]1[C@@H]2CC[C@]2(C)[C@@H](NCCN(C)C)CC[C@@H]12	0.0662 µM	0.133 µM	0.698 µM	1.59 µM	0.139 µM	0.522 µM	0.0886 µM	0.395 µM	0.108 µM	0.5 µM	0.135 µM	0.458 µM	0.107 µM	0.4 µM	0.159 µM	0.665 µM		
Cc1c(N2CCCC2)cc2c(c1NC(=O)c1ccccc1Cl)C(C)(C)CC2(C)C		27.9 µM		41.5 µM		22.8 µM		> 100 µM		28.4 µM		27.6 µM		35.2 µM		34.2 µM		29.5 µM
CN(C)c1ccc2c(=O)c3ccccc3oc2n1								> 100 µM		> 100 µM				> 100 µM		> 100 µM		
O=C1[C@@H]2C(c3ccccc3Br)=NO[C@@H]2C(=O)N1c1ccc(Cc2ccc(N3C(=O)[C@H]4C(c5ccccc5Br)=NO[C@H]4C3=O)cc2)cc1				> 100 µM				> 100 µM				> 100 µM		> 100 µM		> 100 µM		
CC[C@]1(O)CC(OC2CC(N(C)C)C(O)C(C)O2)c2c(cc3c(c2O)C(=O)c2c(O)cccc2C3=O)[C@@H]1C(=O)OC (stereo not given in full)		1.44 µM		2.17 µM		10.4 µM		0.982 µM		1.65 µM		5.57 µM		3.79 µM				3.95 µM
CC(C)(C)NNC(=O)/C(=C/c1ccc([N+](=O)[O-])cc1)NC(=O)c1ccccc1				96.5 µM				> 100 µM		73.3 µM		> 100 µM		79.2 µM		> 100 µM		
CCCCCCCCCCCCNC(C)=O		35.4 µM		35.9 µM		37 µM				27.2 µM		30.1 µM		31.6 µM		30.7 µM		33.3 µM
O=C(Nc1ccc(Cl)c(Cl)c1)c1cccc(NC2=C(Cl)C(=O)N(Cc3ccccc3)C2=O)c1	35.7 µM	> 100 µM	35.5 µM	> 100 µM	27.8 µM	> 100 µM	11.5 µM	> 100 µM	16.6 µM	45.5 µM	35.3 µM	> 100 µM	> 100 µM	> 100 µM	14.4 µM	44.7 µM	24.4 µM	88.9 µM
CN(Cc1cnc2nc(N)nc(N)c2n1)c1ccc(C(=O)NC(CCC(=O)O)C(=O)O)cc1C(F)(F)F (stereo not given)		> 100 µM		> 89 µM		> 100 µM		> 100 µM		> 100 µM		> 100 µM		> 100 µM		> 100 µM		> 100 µM
C/C(=N\NC(=O)c1sc(=S)n(C)c1N)c1cc2ccccc2o1	8.65 µM	32 µM	18.7 µM	40.4 µM	16.2 µM	32 µM	6.38 µM	30.8 µM	15.5 µM	39 µM	13.6 µM	29 µM	17.1 µM	50.6 µM	12.5 µM	49.4 µM	11 µM	26 µM
CC(C)/C=C1\CCC(CN2CCCC2)C1=O (stereo not given)				49.6 µM		20.9 µM		11.9 µM		3.71 µM		21 µM		18.1 µM		3.5 µM		
COc1ccc(C2CC(=O)c3c(O)cc(O)cc3O2)cc1O (stereo not given)				> 100 µM		> 100 µM		> 100 µM		> 100 µM		> 100 µM		> 100 µM		> 100 µM		
CCOC(=O)c1c2c(c(O)c3ccccc3c(O)n(Cc3ccc(OC)cc3)c1C)C(=O)C=CC2=O	> 100 µM	> 100 µM	65.3 µM	> 100 µM	> 100 µM	> 100 µM	76.9 µM	> 100 µM	> 100 µM	> 100 µM	> 100 µM	> 100 µM	> 100 µM	> 100 µM	> 100 µM	> 100 µM	> 100 µM	> 100 µM
CCN(CC)CCOCC[C@H]1CC[C@H]2[C@@H]3[C@H](C)Cc4cc(OS(N)(=O)=O)ccc4[C@H]3CC[C@]12C					0.696 µM	2.08 µM	0.547 µM	2.26 µM	1.52 µM	3.39 µM	1.18 µM	2.59 µM	0.62 µM	1.78 µM	0.704 µM	2.67 µM	1.57 µM	3.87 µM
OC(c1cccc(-n2ccc(C(F)(F)F)n2)c1)c1cnccc1NC1CCCCCC1 (stereo not given)	1.73 µM	3.14 µM			1.79 µM	3.59 µM	1.37 µM	4.96 µM	1.76 µM	3.59 µM	1.66 µM	3.24 µM			1.57 µM	4.51 µM	1.81 µM	3.35 µM
FC(F)(F)Oc1cccc(-c2cnc3ccc(-c4ccncc4)nn23)c1	2.11 µM	48.9 µM			0.518 µM	> 100 µM	3.49 µM	> 100 µM	0.771 µM	2.82 µM	0.833 µM	> 100 µM	1.5 µM	16.7 µM	1.31 µM	4.84 µM	2.09 µM	95.5 µM
Cc1cccc(NC(=O)CCc2ccc(N3C(N)=NC(N)=NC3(C)C)cc2)c1	0.56 µM	> 100 µM	> 64.7 µM	> 100 µM	0.632 µM	> 100 µM	0.715 µM	> 100 µM			0.675 µM	> 100 µM	7.8 µM	> 100 µM	3.17 µM	> 100 µM	> 100 µM	> 100 µM
COc1ccc(OC)c(/C=N/NC(=O)Cc2csc3nc(-c4ccc(Br)cc4)cn23)c1	3.96 µM	16.2 µM			4.57 µM	15.9 µM	2.94 µM	6.94 µM	22.7 µM	> 100 µM	13.8 µM	31.4 µM	35.7 µM	> 100 µM	10.3 µM	> 100 µM	12.8 µM	35.4 µM

SMILES	GI50 [1]	TGI [1]	GI50 [2]	TGI [2]	GI50 [3]	TGI [3]	GI50 [4]	TGI [4]	GI50 [5]	TGI [5]	GI50 [6]	TGI [6]	GI50 [7]	TGI [7]	GI50 [8]	TGI [8]	GI50 [9]	TGI [9]
COC(=O)C1=C(c2ccc(OC)c(OC)c2)OC(c2ccc(OC)c(OC)c2)C1 (stereo not given)				> 100 µM		> 100 µM		> 100 µM				> 100 µM		36.4 µM		> 100 µM		
Cc1ccc(S(=O)(=O)N[C@H](C(=O)O)c2ccccc2)cc1				> 100 µM				> 100 µM		> 100 µM		> 100 µM		> 100 µM		> 100 µM		
COc1cccc2c1C(=O)C=CC2=O		26.2 µM		38.3 µM		12.1 µM		4.97 µM		5 µM		13.9 µM		20.5 µM		7.23 µM		
CC(NS(=O)(=O)c1ccc([N+](=O)[O-])cc1)C(=O)O (stereo not given)				> 100 µM				> 100 µM		> 100 µM		> 100 µM		> 100 µM		> 100 µM		
NC1=NC(=O)/C(=C/c2ccccc2[N+](=O)[O-])C(N)=N1				> 100 µM		> 100 µM		> 100 µM		> 100 µM		> 100 µM		> 100 µM		> 100 µM		
CS/C(=N\C(=S)N(C)C)N(c1ccccc1)c1nc(=[N+](C)C)ss1						21.7 µM		12.5 µM		5.36 µM		20 µM		7.04 µM		6.24 µM		
O=C1c2ccccc2-c2c1c1ccccc1c(=O)n2CCCCNCCCn1c2c(c3ccccc3c1=O)C(=O)c1ccccc1-2	0.851 µM	4.32 µM	0.375 µM	3.11 µM	0.00948 µM	0.688 µM	0.205 µM	9.62 µM	0.361 µM	6.39 µM			1.51 µM	12.7 µM	0.0193 µM	0.755 µM	0.582 µM	1.72 µM
CC12CCC3C(CCC4Cc5[nH]c6ccccc6c5CC43C)C1CCC2O (stereo not given)	0.241 µM	0.717 µM	6.08 µM	> 100 µM	0.501 µM				0.295 µM	5.73 µM	0.646 µM	> 48 µM	2.76 µM	6.78 µM	1.13 µM	4.52 µM	0.481 µM	5.54 µM
CCOc1ccccc1NC(=O)CC1C(=O)Nc2ccccc2S1=O (stereo not given)				> 100 µM		> 100 µM		> 100 µM		> 100 µM		> 100 µM				46.1 µM		
CCSCC1CC(O)(c2ccccc2)C(c2ccccc2)C(c2ccc(Cl)cc2)O1 (stereo not given)	1.74 µM	3.84 µM	1.74 µM	3.97 µM	1.21 µM	2.58 µM	1.89 µM	8.37 µM			1.63 µM	3.32 µM	1.53 µM	2.94 µM	1.56 µM	4.66 µM	1.97 µM	5.34 µM
CC1CC(C2=CC=CCS2)=Nc2ccccc2S1 (stereo not given)						> 100 µM		> 100 µM		> 100 µM		> 100 µM		> 100 µM		> 100 µM		
Cc1nc(-c2cccc(Nc3nc(-c4ccc(Cl)cc4)cs3)c2)cs1	10.4 µM	27.4 µM			11.6 µM	27.5 µM	8.06 µM	21.4 µM	8.8 µM	19 µM	8.34 µM	16.4 µM	11.9 µM	31.1 µM	21.3 µM	> 50 µM	5.14 µM	12.2 µM
O=C(Nc1ccccc1-c1n[nH]c(=S)[nH]c1=O)C(F)(F)F				> 100 µM		> 100 µM		> 100 µM		> 100 µM		> 100 µM		> 100 µM				
Cc1ccccc1NC(=O)C(=O)C(C#N)c1ccc(Cl)cc1 (stereo not given)				> 100 µM		> 100 µM		> 100 µM		> 100 µM		> 100 µM		> 100 µM		48.8 µM		
O=C(Nc1ccc(Cl)cc1Cl)C1C(=O)N(c2ccc(Cl)cc2Cl)C(=O)/C1=N\Nc1ccc([N+](=O)[O-])cc1[N+](=O)[O-] (stereo not given)				> 100 µM		> 100 µM		> 100 µM		71 µM		> 100 µM		> 100 µM		69.5 µM		
COc1cc(/C=C/c2ccncc2)cc(OC)c1OC				> 100 µM		> 100 µM		> 100 µM		> 100 µM		> 100 µM		> 100 µM		> 100 µM		
CC1CC[C@]2(C(=O)O)CCC3(COC(=O)/C=C\c4ccc(O)cc4)C(=CCC4[C@@]5(C)CC[C@H](O)C(C)(C)C5CC[C@]43C)[C@@H]2[C@H]1C (stereo not given in full)				39.5 µM		37 µM		> 100 µM		44.6 µM		23.4 µM		50.9 µM		> 100 µM		
Cc1ccc(NC(=O)c2cc3cc(N=Nc4ccc(Br)cc4)ccc3oc2=O)cc1				> 100 µM		> 100 µM				> 100 µM		> 100 µM		> 100 µM		> 100 µM		
COc1c(C=O)c2c(c(OC)c1OC)-c1ccc(OC)c(=O)cc1[C@@H](NC(C)=O)CC2		24.6 µM		4.17 µM		1.05 µM		> 100 µM				> 25.5 µM		0.574 µM		47.2 µM		
Cc1ccc(S(=O)(=O)OC2CCN(C)CC2)cc1		> 100 µM				> 100 µM		40.4 µM		46.5 µM		> 100 µM		42.3 µM		49.8 µM		> 100 µM
